In patent publication US6362212B1, “Oxime derivative and bactericide containing the same as active ingredient” (Shionogi & Company, Ltd., priority 1994, dated 2002):

Columns and labels:
Assay type in all cases: in vivo
Pyricularia oryzae = conditions: foliage spray on rice seedlings (cv. […]), number of lesions six days after the inoculation
Sphaerotheca fuliginea = assay: Controlling effect on Sphaerotheca fuliginea by foliage application (pot experiment); conditions: foliage spray on cucumber (cv. TSUKUBASHIROIBO) first leaves, infected area after 10 days in greenhouse at 20° C.
Procedure: The following Test Examples illustrate the effects of the fungicide of the present invention. (I. Controlling effects on various plant diseases by foliage application (pot experiment)) A test compound was dissolved in a small amount of N,N-dimethylformamide, and the solution was diluted to a given concentration with distilled water containing a spreader. Thus, a liquid sample to be tested was prepared. The liquid sample was sprayed to test plants, and 24 hours thereafter, pathogens were inoculated by the method described below. […] Seeds of cucumber ([…]) were sown in plastic cups (each 9 cm in diameter), followed by cultivation for 2 to 3 weeks. The liquid test sample in the form of a solution or suspension was sprayed on the surface of their first leaves. The pathogen was inoculated to the leaves by spraying a conidia suspension of Sphaerotheca fuliginea which had been cultured on the cucumber leaves. After the inoculation, the plants were kept in a greenhouse at 20° C. for 10 days. Then, the infected area on the leaf was observed, and the percent control was calculated.

[1] = tested on: Erysiphe graminis f. sp. tritici; assay: Controlling effect on Erysiphe graminis f. sp. tritici by foliage application (pot experiment); conditions: foliage spray on wheat (cv. NORIN No. 61) seedlings, infected area after 10 days in greenhouse at 20° C.
Procedure: The following Test Examples illustrate the effects of the fungicide of the present invention. (I. Controlling effects on various plant diseases by foliage application (pot experiment)) A test compound was dissolved in a small amount of N,N-dimethylformamide, and the solution was diluted to a given concentration with distilled water containing a spreader. Thus, a liquid sample to be tested was prepared. The liquid sample was sprayed to test plants, and 24 hours thereafter, pathogens were inoculated by the method described below. […] The seeds of wheat (cv.: NORIN No. 61) were sown in plastic cups (each 9 cm in diameter), followed by cultivation for 2 to 3 weeks. The test compound in the form of a solution or suspension was sprayed to the seedlings, and conidia of Erysiphe graminis f. sp. tritici cultured on wheat leaves were dropped on the test plants to inoculate the plants with the pathogen. After the inoculation, the plants were kept in a greenhouse at 20° C. for 10 days. The infected area on the leaf was observed, and the percent control was calculated.

[2] = tested on: Pseudoperonospora cubensis; assay: Controlling effect on Pseudoperonospora cubensis by foliage application (pot experiment); conditions: foliage spray on cucumber (var. TSUKUBASHIROIBO) first leaves, lesion area after 10 days in moist chamber at 20° C.
Procedure: The following Test Examples illustrate the effects of the fungicide of the present invention. (I. Controlling effects on various plant diseases by foliage application (pot experiment)) A test compound was dissolved in a small amount of N,N-dimethylformamide, and the solution was diluted to a given concentration with distilled water containing a spreader. Thus, a liquid sample to be tested was prepared. The liquid sample was sprayed to test plants, and 24 hours thereafter, pathogens were inoculated by the method described below. […] The seeds of cucumber (var.: […]) were sown in plastic cups (each 9 cm in diameter), followed by cultivation for 2 to 3 weeks. The test compound in the form of a solution or suspension was sprayed to the surface of their first leaves, and a zoosporangia suspension of Pseudoperonospora cubensis cultured on cucumber leaves was dropped on the above leaf surfaces to inoculate the test plants with the pathogen. After the inoculation, the plants were kept in a moist chamber at 20° C. for 10 days. Then, the area of the lesions around the inoculum were observed and the percent control was calculated.

Structure (SMILES)	Controlling effect on PYricularia orYzae by foliage application at 500 ppm (percent control) (Pyricularia oryzae)	Controlling effect on Sphaerotheca fuliginea by foliage application at 500 ppm (percent control) (Sphaerotheca fuliginea)	Controlling effect on ErYsiphe graminis f. sp. tritici by foliage application at 500 ppm (percent control) [1] [percent control]	Controlling effect on Pseudoperonospora cubensis by foliage application at 500 ppm (percent control) [2] [percent control]
CON=C(c1ccno1)c1ccccc1COc1ccccc1C (single isomer, unassigned) [512A]	90	100	97	100
CON=C(c1ccccc1COc1cccc(C)c1)c1nccn1C (single isomer, unassigned) [113A]	97	100	90	100
CON=C(c1cc(C)no1)c1ccccc1COc1ccc(Cl)cc1 (single isomer, unassigned) [607B]	–	97	70	97
CON=C(c1ccon1)c1ccccc1COc1ccccc1Cl (mixture of isomers) [compound 305]	70	100	90	100
CON=C(c1cc(C)no1)c1ccccc1COc1cccc(Cl)c1 (single isomer, unassigned) [606A]	–	100	70	95
CON=C(c1cc(C)no1)c1ccccc1COc1cccc(C)c1 (single isomer, unassigned) [613B]	–	100	70	100
CON=C(c1cc(C)no1)c1ccccc1COc1ccccc1C (single isomer, unassigned) [612B]	–	100	100	100
COC(=O)C(C)N(C(=O)Cc1ccccc1)c1c(C)cccc1C (stereo not shown) [Benalaxyl, reference compound]	–	–	–	97
CON=C(c1nnco1)c1ccccc1COc1ccccc1Cl [compound 705]	70	97	–	100
CON=C(c1ccno1)c1ccccc1COc1ccc(Cl)cc1C (single isomer, unassigned) [541A]	–	100	90	100
CON=C(c1cc(C)no1)c1ccccc1CON=C(C)c1ccc(Cl)cc1 [Compound No. 2507]	–	100	–	100
CON=C(c1cc(C)no1)c1ccccc1COc1cccc(Cl)c1 (single isomer, unassigned) [606B]	–	100	–	100
CON=C(c1nnn(C)n1)c1ccccc1COc1ccc(-c2ccccc2)cc1 [compound 2044]	–	97	–	100
CON=C(c1ccccc1COc1cccc(C(C)C)c1)c1nccn1C (single isomer, unassigned) [146A]	97	97	–	100
CON=C(c1noc(C)n1)c1ccccc1COc1ccccc1Cl [compound 905]	–	90	–	99
CON=C(c1ccccc1COc1cccc(Cl)c1)n1cncn1 [compound 266]	90	97	97	–
CON=C(c1nnn(C)n1)c1ccccc1COc1ccc(C)cc1 [compound 2014]	–	100	–	100
CON=C(c1cc(C)on1)c1ccccc1COc1ccccc1C (mixture of isomers) [compound 412]	–	100	70	100
CCON=C(c1ccon1)c1ccccc1COc1cc(C)ccc1C (mixture of isomers) [compound 1674]	70	70	70	–
CON=C(c1ccccc1COc1cccc(Cl)c1)c1nccn1C (single isomer, unassigned) [106B]	–	97	–	100
CON=C(c1ccccc1COc1ccc(Cl)cc1)c1nccn1C (single isomer, unassigned) [107A]	90	100	70	–
CON=C(c1ncon1)c1ccccc1COc1ccc(-c2ccccc2)cc1 [compound 844]	–	97	–	100
CON=C(c1cc(C)no1)c1ccccc1COc1ncc(C(F)(F)F)cc1Cl (single isomer, unassigned) [690B, 2-(3-chloro-5-trifluoromethyl-2-pyridyloxymethyl)phenyl 3-methylisoxazol-5-yl ketone O-methyloxime]	–	–	–	100
CON=C(c1ncon1)c1ccccc1COc1ccccc1C [Compound No. 812]	70	100	100	–
